What was measured:
[1] = system: thoracic aortic rings of spontaneously hypertensive rats (SHR); test: Vasorelaxation in thoracic aortic rings of spontaneously hypertensive rats (SHR) pre-contracted with phenylephrine; design: species or system rat; conditions: percentage of decrease of phenylephrine contraction
Experimental: Three- to four-mm rings of the descending thoracic aorta, free from adipose and connective tissue, were maintained in a gasified solution (95% 02 and 5% CO2) of Krebs-Henseleit, at 37° C. under 1.0 g tension, 1 hour for stabilization. The presence of functional endothelium was assessed by the ability of acetylcholine [ACh] (10 μmol/L) to induce more than 70% relaxation of vessels pre-contracted with phenylephrine (Phe) ([…]). The mechanical activity, recorded isometrically by a force transducer, was fed into a recorder-amplifier and a computer equipped with an analog-digital converter board, using CVMS data acquisition/recording software.
The vessels from normotensive Wistar rats and spontaneously hypertensive rats (SHR) were pre-contracted in the same voltage level (approximately 1.0 g tension) at the submaximal concentration of phenylephrine ([…]). Arg0-Ang-(1-7) and Ang-(1-7) were added in increasing cumulative concentrations as the response to phenylephrine was stabilized. Results are presented as mean±SEM. One-way analysis of variance (ANOVA) with Newman-Keuls post test of multiple comparisons was used to compare the concentration response curves obtained in the aortic rings. The vasodilatation effect of arg0-Ang-(1-7) and Ang-(1-7) was expressed as the percentage of decrease in peak concentration induced by phenylephrine. […]

conscious SHR = test: Acute IV bolus administration, MAP and HR in conscious SHR; format: in vivo, rat
Experimental: Wistar and SHR rats were anesthetized with 2.5% tribromoethanol, intraperitoneally (1 mL/100 g). For femoral artery cannulation, cannulas made by connecting 15 cm polyethylene PESO to 4 cm of PE10 polyethylene were used, filled with saline solution (NaCl 0.9%) and heparin (100 IU/0.1 mL). After the animal was placed supine on the operating table, a trichotomy of the right inguinal region of the animal was performed. A small skin incision was made; the femoral neurovascular bundle was located and the femoral artery isolated. The cannula was introduced into the abdominal aorta through the femoral artery and was used for obtaining the cardiovascular parameters. A second cannula made by connecting 15 cm polyethylene PESO to 2 cm of PE10 polyethylene, filled with saline (0.9% NaCl), was inserted into the femoral vein for administration of peptides. After cannulation, the catheters were secured and exteriorized subcutaneously into the back of the animal, in the cervical region. The incisions were sutured and the animals placed in individual cages, with free access to water and feed. The values of mean arterial pressure (MAP) and heart rate (HR) were calculated from PA pulses and recorded by the data acquisition system (BIOPAC System, Model MP150). The pulsatile arterial pressure (PAP) was recorded by a signal sent to a transducer connected to the cannula inserted into the abdominal aorta via the femoral artery. The pressure oscillations were captured, amplified and converted by an analog/digital conversion board feeding signals to the data acquisition board. Through the card reader software, AcqKnowledge v.3.5.7 (Biopac System), PAP was continuously recorded with a sampling frequency of 2000-4000 Hz. Twenty-four hours after implantation of the cannulas was conducted, the first protocol, which consisted of acute intravenous administration of peptides was performed. For this, during the experiment, the arterial catheter was connected to the pressure transducer for the beginning of the record. After 90 minutes of cardiovascular parameters stabilization (baseline), the administration of the peptides […]-Ang-(1-7), Ang (1-7) or saline in a final volume of 300 uL was given in bolus. […] The Ang-(1-7) also was used to compare the effect induced by each peptide. Doses of 0.1 nmol/kg; 0.5 nmol/kg; 2.5 nmol/kg and 12.5 nmol/kg were administered to SHR (n=5-7 for each dose) while awake. […] After injection of the peptide or saline, cardiovascular parameters were continuously monitored for a period of 5 hours. The values of the MAP and HR were obtained every 10 minutes throughout the experimental period. Results are presented as mean±standard error of the mean. Two-way analysis of variance (ANOVA) with Bonferroni's multiple comparison post-test were used to compare the time-response curve obtained during the bolus administration in […]-Ang-(1-7) and Ang-(1-7). All statistical analyses were considered significant when p<0.05.

awake Wistar rats = test: Acute IV bolus administration, MAP and HR in awake Wistar rats; format: in vivo, rat; conditions: IV bolus 0.5 nmol/kg
Experimental: Wistar and SHR rats were anesthetized with 2.5% tribromoethanol, intraperitoneally (1 mL/100 g). For femoral artery cannulation, cannulas made by connecting 15 cm polyethylene PESO to 4 cm of PE10 polyethylene were used, filled with saline solution (NaCl 0.9%) and heparin (100 IU/0.1 mL). After the animal was placed supine on the operating table, a trichotomy of the right inguinal region of the animal was performed. A small skin incision was made; the femoral neurovascular bundle was located and the femoral artery isolated. The cannula was introduced into the abdominal aorta through the femoral artery and was used for obtaining the cardiovascular parameters. […] The values of mean arterial pressure (MAP) and heart rate (HR) were calculated from PA pulses and recorded by the data acquisition system (BIOPAC System, Model MP150). The pulsatile arterial pressure (PAP) was recorded by a signal sent to a transducer connected to the cannula inserted into the abdominal aorta via the femoral artery. […] Through the card reader software, AcqKnowledge v.3.5.7 (Biopac System), PAP was continuously recorded with a sampling frequency of 2000-4000 Hz. […] After injection of the peptide or saline, cardiovascular parameters were continuously monitored for a period of 5 hours. […]

protein kinase B (AKT) = test: Activation (Ser473 phosphorylation) of AKT in neonatal rat cardiomyocytes, Western blot; format: cell-based; conditions: cardiomyocyte cells, 10^−9 mol/L, five minutes
Experimental: Wistar neonatal rat cardiomyocytes were cultured in regular growth medium consisting of DEMEM medium supplemented with 10% horse serum, 5% fetal bovine serum, 1% penicillin/streptomycin and 0.1% fibroblast inhibitor. The cells were maintained in serum free medium for three hours before the start of treatment. The study was carried out acutely, for five minutes using a concentration of 10^−9 mol/L of the following drugs diluted in culture medium: Ang-(1-7), arg0-Ang-(1-7) and insulin. Cells incubated with culture medium only were used as control group.
Total protein was isolated from cardiomyocytes cells with lysis buffer containing protease inhibitors cocktail (Days-Peixoto et al., Hypertension 52: 542-548, 2008). Sixty micrograms of total protein was separated by electrophoresis, transferred to a nitrocellulose membrane, blocked with 5% skimmed milk powder diluted in Tris-saline containing 0.1% Tween, and finally incubated overnight with anti-AKT polyclonal antibody (1:1000), anti-Ser473 phospho-Akt (1:600), anti-glyceraldehyde-3-phosphate dehydrogenase (GAPDH—1:1000). Subsequently, the membranes were incubated with fluorescently labeled secondary antibody (1:10000), followed by identification and quantitation by the Odyssey program (LI-COR).
The results are presented as mean+E.PM. […]

[2] = system: Human alveolar adenocarcinoma cells (A549); test: Anti-proliferative effect in A549 cells (AlamarBlue cell viability); format: cell-based; conditions: 1×10^−4 to 2×10^−7M, 48 hours
Experimental: Human alveolar adenocarcinoma cells (A549), cultured in DEMEM supplemented with 10% fetal bovine serum and 1% penicillin/streptomycin, were distributed into 96 wells plate at the density of 2×10^4 cells/well. After 48 hours of incubation in an incubator at 37° C., the arg0-angiotensin-(1-7) and angiotensin (1-7) peptides were added to the wells and serially diluted (1×10^−4 to 2×10^−7M) in culture medium free of fetal bovine serum. Wells not plated with cells and wells with cells but stimulated only with culture medium were used as controls. The stimulus, which lasted 48 hours, was followed by the addition of AlamarBlue reagent (Invitrogen), used to detect cell viability.

Asp-Arg-Val-Tyr-Ile-His-Pro [Ang-(1-7)]
Emax of vasorelaxation [1]: 30±3% | effect on MAP (PAM) (conscious SHR; SHR, IV bolus 0.1 nmol/kg): did not significantly alter PAM | effect on MAP (conscious SHR; SHR, IV bolus 0.5 nmol/kg, vs saline group): no significant difference | change in heart rate (FC) (conscious SHR; SHR, IV bolus 12.5 nmol/kg, last 30 minutes of the experiment): significantly reduced the FC | time after administration at which anti-hypertensive effect was observed (conscious SHR; SHR, IV bolus 2.5 and 12.5 nmol/kg): 110 min | effect on MAP (conscious SHR; SHR, IV bolus 2.5 and 12.5 nmol/kg, vs saline group): significant anti-hypertensive effect | dose comparison of anti-hypertensive effect (conscious SHR; SHR, IV bolus 2.5 vs 12.5 nmol/kg): more potent at the dose of 2.5 nmol/kg | change in heart rate (CF) (conscious SHR; SHR, IV bolus, all doses except 12.5 nmol/kg Ang-(1-7)): no change was observed | change in MAP, time- and dose-dependent (conscious SHR; awake SHR, acute intravenous, different doses, vs saline group): significant reduction in MAP | change in HR (awake Wistar rats): failed to induce significant changes | change in MAP (awake Wistar rats): failed to induce significant changes | activation of protein kinase B (AKT) (protein kinase B (AKT)): triggered the activation of protein kinase B (AKT) | anti-proliferative effect [2]: anti-proliferative effect
